Test results published in patent publication US9175077B2, “Nucleic acids encoding biologically active polypeptides derived from a novel early stage pregnancy factor designated maternin (MA)” (NOBEL BIOSCIENCES LLC, priority 1999, dated 2015).
“Also recorded” adds a separate entry of the source.

Legend:
[1] = Lethal dose taxol in Sprague-Dawley rats; format: in vivo
Experimental: Sprague-Dawley rats were given taxol in large lethal doses, 4.5 mg in one I.P. inoculation. […] Bone marrow suppression can also be a side effect of the clinical use of taxol.^179 As in the radiation experiments, either MA, pMA, MAS1, or various polypeptide controls were given subcutaneously only in two doses 24 and 48 hrs before taxol treatment or were given 3×/week for 4 weeks. […]

[2] = Lethally irradiated rats and mice; conditions: for survival: treated at time of radiation, 3×/week for 4 weeks
Experimental: In order to determine in vivo relevance of the prohematopoietic effects of MA treated rats and mice under several conditions of bone marrow suppression. First, the effects of native MA and pMA and of the synthetic 15-mer MAS1 were treated for their capacity to reduce or prevent the effects of lethal doses of gamma irradiation. […] MA, pMA, MAS1, and various control polypeptides were given 48 and 24 hrs before, during, or 24 hrs after radiation. The animals treated prior to radiation received either 100 ng vs. 1 ug (rats) or 50 ng vs. 500 ng (mice) as 2 subcutaneous injections.
It is not yet possible to determine the precise molar dose of pMA because of less certainty on its full-length sequence.
To ascertain that the MA effect did promote hematopoiesis in these animals we examined the bone marrow for cellularity and colony formation and determined peripheral blood counts.

[3] = system: primary human tumor cells; test: Short-term cultured primary human tumor cells, growth and apoptosis; format: cell-based; conditions: 200 ng/ml; 3 days culture; 10% serum
Source text: Because cell lines might be more susceptible to growth inhibition and apoptosis, the effects of MA on short-term cultured human tumor cells were investigated. The cells were obtained from biopsied specimens and immediately cultured (primary cultures). The results were similar to the results with tumor cell lines. […] FIG. 3, Panels A and B are representative results with primary breast and prostate carcinomas respectively. These pro-apoptotic effects of MA on human tumor cells were with 10% serum rather than the lower concentrations sometimes used to make cells more susceptible to apoptosis.
More extensive studies of primary human tumor cells were carried out utilizing confocal microscopy.
With the exception of the kidney carcinoma, which was a biopsy sample direct from the tumor, the samples were from pleural effusions which developed after metastasis to the lung. The breast, prostate, and colon carcinomas were freshly obtained and immediately cultured, whereas the lung and kidney carcinomas went through 22 and 18 passes respectively before they were used in these studies. All cells were examined after 3 days culture in the presence or absence of MA (200 ng/ml) or other treatments. […]

B16 melanoma = test: Pro-apoptotic effect on cultured B16 melanoma cells; format: cell-based, mouse; conditions: same dose range as cultured human tumor cells
Experimental: (§1) B16 melanoma and Lewis lung (LL) carcinoma cells were first shown to be susceptible to the pro-apoptotic effects of MA (FIG. 6, Panels C and D) at the same dose range used with cultured human tumor cells. The tumor cells grown in standard culture conditions were used to generate metastatic cancers in pathogen-free 6-8 week old C57/BL mice (Charles River). In one set of experiments, the animals were treated with MAS1 or MAS2 at two doses, 0.1 ug or 1.0 ug either in a pre-treatment protocol (two subcutaneous inoculations 24 and 48 hrs before transplanting the tumor cells).

[4] = system: spontaneous fibrosarcomas; test: Spontaneous fibrosarcomas in FVB/N mice; format: in vivo; conditions: treatment for 2 weeks
Source text: As shown, MA killed a wide variety of human tumor cells in vitro and in vivo killed xenotransplanted human tumors in immune deficient mice. We wanted to be certain that the in vivo results would not be limited to immune deficient mice. […] Therefore, we tested the effects of MA on: • spontaneous fibrosarcomas which developed in three older FVB/N mice; and • spontaneous breast carcinomas which developed in three older Sprague-Dawley rats.
The tumors were recognized and treated after different stages of development. Samples of the tumor cells were grown in short-term culture and when treated with MA underwent rapid apoptosis.

[5] = system: B16 melanoma and Lewis lung (LL) carcinoma; test: Metastatic B16 melanoma and Lewis lung carcinoma in C57/BL mice; format: in vivo; conditions: MAS1 or MAS2 0.1 ug or 1.0 ug
Experimental: as §1

[6] = system: human bone marrow stem cells; test: Engraftment of ex vivo expanded hematopoietic progenitor cells in SCID mice
Source text: The inventors also investigated the effect of MA on engraftment of human bone marrow stem cells [CD34^+, CD38″ cells, long term cultures after 4 mos, and stromal free cultures] ex vivo expanded hematopoietic progenitor cells in Rats irradiated [Sprague DAwley, 450 Rad] and immunodeficient mice [SCID or BNX-XID mice].
Measurement of short-term hematopoietic reconstitution kinetics and long term repopulating ability. Just prior to implantation, SCID, BNX-XID-immunodeficient mice and Sprague Dawley rats were exposed to 450 rad total body γ-irradiation. […] But the SCID and BNX-XID immunodeficient mice were repopulated by the cultured, treated human cells.

[7] = system: HIV-1 transgene expression; test: HIV-1 transgenic rats; format: in vivo
Source text: Because of the extraordinary effects of MA in the mouse modes, we were concerned that the results might be peculiar to the model. Consequently, an HIV-1 transgenic rat model was developed. An additional advantage of the rat model is the larger size of the animals, enabling direct inoculation of MA into the developing pups rather than therapy being indirect (the lactating mother) and limited to the lactation phase. Thus, the transgenic rats can be followed and treated much longer.
Like the transgenic mice, the transgenic rats contain HIV-1 provirus PNNL 4-3, again deleted in gag/pol, and also develop hyperkeratosis. Additionally, they develop tissue fibrosis, inflammatory changes, and some histopathology more similar to human AIDS than in the mouse model, but unlike the HIV-1 transgenic mice the effect is usually not lethal. The changes correlate with expression of HIV-1 proteins. The transgenic rats are more fully described in copending U.S. patent application Ser. No. 09/058,113, by Bryant et al., filed Apr. 9, 1998, entitled “HIV Transgenic Animals and Uses Therefor,” the entire disclosure of which is incorporated herein by reference.
Inoculation (subcutaneous) of a 250-300 gm mother with 300 pmoles of MA for 10 days began after birth of the pups. […]

In the case of “VVCNYRDVRFESIRLPGCPRGVNPVVSYAVALSCQ [MA]”, the “survival of pretreated animals” value ([1]; low dose, two doses 24 and 48 hrs before taxol) is reported as “Sixty-percent”, the “survival maintained to day 80” value ([1]; therapy maintained 28 days, high dose (1000 ng)) is reported as roughly 80% and the “survival maintained to day 80” value ([1]; therapy maintained 28 days, low dose (100 ng)) is reported as “about 60%”. The “survival on day 5” value ([1]; therapy maintained 28 days, low or high dose) was 100%, the survival ([2]; higher dose, over 100 days) was 100% and the gastrointestinal distress ([2]; in vivo) was “little or no gastrointestinal distress”. The survival ([2]; lowest doses) was 80%, the relative survival ([2]; pretreated, higher dose) was “survived longest” and the “growth inhibition and apoptosis of primary human tumor cells” value [3] was “inhibited growth and induced apoptosis; also recorded: Rapid induction of apoptosis”. For the same sequence, the “susceptibility to pro-apoptotic effects” value (B16 melanoma) was “susceptible”, the tumor outcome [4] was “complete abolishment of the tumor in two of three animals; also recorded: Partial regression was observed in one animal” and the “pro-apoptotic effect on neoplastic cells in vivo” value [5] was “potent pro-apoptotic effect”. For the same sequence, the CD4 [6] was 2%, the CD14 [6] was 2% and the CD34 [6] was 38%. For the same sequence, the survival and development ([7]; 300 pmoles to mother for 10 days, then direct subcutaneous inoculation) was “survived, developed normally” and the transgene expression ([7]; rat, in vivo) was “markedly reduced”.
